Experimental data from PMC6541511 (Organic & biomolecular chemistry, 2019).

How the values were obtained:
MDA-MB-231 = experiment: CellTiterGlo; assay type: cell-based; conditions: Homo sapiens, MDA-MB-231, read-out: MDA-MB-231 EC50
SUM149 = experiment: CellTiterGlo; assay type: cell-based; conditions: SUM149, read-out: SUM149 EC50
HMEC = experiment: CellTiterGlo; assay type: cell-based; conditions: Homo sapiens, read-out: HMEC EC50
[1] = Solubility / precipitation; conditions: 5–10 mM concentrations in DMSO, RT
T-47D = experiment: CellTiterGlo; assay type: cell-based; conditions: Homo sapiens, T47D, read-out: T-47D EC50

Structure (SMILES)	EC50 (MDA-MB-231)	EC50 (SUM149)	EC50 (HMEC)	time after which precipitation occurs [1]	EC50 (T-47D)	solubility (physchem)
COc1cccc2c1C(=O)c1c(O)c3c(c(O)c1C2=O)C[C@@](O)(C(=O)CO)C[C@@H]3O[C@H]1C[C@H](N)[C@H](O)[C@H](C)O1 [Doxorubicin]	1 µM	1 µM	> 10 µM			
CC(C)[C@@H](C)/C=C/[C@@H](C)[C@H]1CC[C@@H]2[C@]1(C)CC[C@H]1[C@]23C=C[C@]2(C[C@@H](O)CC[C@]12C)OO3 [compound 3, ergosterol peroxide]	18 µM	9 µM	> 20 µM	168 h	19 µM	< 50 µM
CC(=O)O[C@H]1C(=O)[C@@]2(C)[C@H]([C@H](OC(=O)c3ccccc3)[C@]3(O)C[C@H](OC(=O)[C@H](O)[C@@H](NC(=O)c4ccccc4)c4ccccc4)C(C)=C1C3(C)C)[C@]1(OC(C)=O)CO[C@@H]1C[C@@H]2O [Taxol]	2 µM	0.01 µM	> 10 µM			
CCCCCOC(=O)Nc1nc(=O)n([C@@H]2O[C@H](C)[C@@H](O)[C@H]2O)cc1F [Capecitabine]	5 µM	5 µM	10 µM			
